# Reference: ChEMBL document CHEMBL5042539, “Structure-Guided Discovery of the Novel Covalent Allosteric Site and Covalent Inhibitors of Fructose-1,6-Bisphosphate Aldolase to Overcome the Azole Resistance of Candidiasis” (J Med Chem, 2022)
# Calls of active or inactive are those of the source. The rule behind the calls is not given here.
# Experiments:
# Candida albicans [1] = assay: Inhibition of wild type Candida albicans Fructose-1,6-Bisphosphate Aldolase transfected in Escherichia coli BL21 (DE3) at 50 uM incubated for 3 mins in presence of NADH by spectrophotometric analysis relative to control
# [2] = Inhibition of Candida albicans Fructose-1,6-Bisphosphate Aldolase C111S mutant transfected in Escherichia coli BL21 (DE3) incubated for 3 mins in presence of NADH by spectrophotometric analysis
# Candida albicans [3] = assay: Selectivity ratio of IC50 for inhibition of Candida albicans Fructose-1,6-Bisphosphate Aldolase C292S mutant to IC50 for inhibition of wild type Candida albicans Fructose-1,6-Bisphosphate Aldolase
# [4] = Inhibition of Candida albicans Fructose-1,6-Bisphosphate Aldolase C157S mutant transfected in Escherichia coli BL21 (DE3) incubated for 3 mins in presence of NADH by spectrophotometric analysis
# [5] = Inhibition of Candida albicans Fructose-1,6-Bisphosphate Aldolase C292S mutant transfected in Escherichia coli BL21 (DE3) incubated for 3 mins in presence of NADH by spectrophotometric analysis
# [6] = Inhibition of wild type Candida albicans Fructose-1,6-Bisphosphate Aldolase transfected in Escherichia coli BL21 (DE3) incubated for 3 mins in presence of NADH by spectrophotometric analysis
# Candida albicans [7] = assay: Binding affinity to Candida albicans Fructose-1,6-Bisphosphate Aldolase assessed as ratio of kinact/Ki incubated for 12 to 40 mins by NADH-linked enzymatic assay; conditions: time 12-40 min
# [8] = Cytotoxicity against human HaCaT cells; assay type: toxicity, cell-based
# Candida albicans [9] = assay: Antifungal activity against Candida albicans SC5314 incubated for 48 hrs by CLSI based broth microdilution method; assay type: functional
# Candida albicans [10] = assay: Antifungal activity against fluconazole resistant Candida albicans 7781 incubated for 48 hrs by CLSI based broth microdilution method; assay type: functional
# Candida albicans [11] = assay: Binding affinity to Candida albicans Fructose-1,6-Bisphosphate Aldolase assessed as Kinact incubated for 12 to 40 mins by NADH-linked enzymatic assay; conditions: time 12-40 min
# Candida albicans [12] = assay: Antifungal activity against fluconazole resistant Candida albicans 904 incubated for 48 hrs by CLSI based broth microdilution method; assay type: functional
# Candida albicans [13] = assay: Antifungal activity against fluconazole resistant Candida albicans 103 incubated for 48 hrs by CLSI based broth microdilution method; assay type: functional
# [14] = Binding affinity to Candida albicans Fructose-1,6-Bisphosphate Aldolase assessed as inhibition constant incubated for 12 to 40 mins by NADH-linked enzymatic assay
# Candida albicans [15] = assay: Inhibition of wild type Candida albicans Fructose-1,6-Bisphosphate Aldolase transfected in Escherichia coli BL21 (DE3) at 100 uM incubated for 3 mins in presence of NADH by spectrophotometric analysis relative to control
# Candida albicans [16] = assay: Antibiofilm activity against azole resistant Candida albicans 0304103 assessed as inhibition of biofilm formation by XTT assay; assay type: functional, organism-based; conditions: dose 0-64 µg/ml
# Candida albicans [17] = assay: Antifungal activity against azole-resistant Candida albicans 030410 assessed as inhibition of fungal filamentation by measuring reduction in yeast-hypha transition at 32 ug/ml by microscopic analysis; assay type: functional, organism-based; conditions: dose 32.0 µg/ml
Compound,IC50 [6] [nM],MIC80 (Candida albicans [9]) [µg/mL],MIC80 (Candida albicans [10]) [µg/mL],MIC80 (Candida albicans [12]) [µg/mL],MIC80 (Candida albicans [13]) [µg/mL],other results
CCN(CC)C(=S)SSC(=S)N(CC)CC,–,–,–,–,–,inhibition (Candida albicans [1]): 83%
O=c1c2ccccc2[se]n1-c1nncs1,155,–,–,–,–,IC50 [2]: 303 nM; Ratio IC50 (Candida albicans [3]): 11.3; IC50 [4]: 227 nM; IC50 [5]: 1750 nM
O=c1c2ccccc2[se]n1-c1ccc(-n2cncn2)cc1,38,8,8,4,8,Ratio (Candida albicans [7]): 10.4 M⁻¹ s⁻¹; IC50 [8]: > 32 µM; Kinact (Candida albicans [11]): 0.00506 s⁻¹; Ki [14]: 486 nM
O=c1c2ccccc2[se]n1-c1ccc(C(F)(F)F)cc1,13,4,4,8,4,Ratio (Candida albicans [7]): 15.9 M⁻¹ s⁻¹; IC50 [8]: > 32 µM; Kinact (Candida albicans [11]): 0.00092 s⁻¹; Ki [14]: 58 nM
CCCCc1ccc(-n2[se]c3ccccc3c2=O)cc1,100,8,4,8,4,–
O=C(NCc1ccccc1)n1[se]c2ccccc2c1=O,97.3,16,8,16,8,–
O=c1c2ccccc2[se]n1-c1ccc(-c2ccccc2)cc1,60,32,64,64,64,–
N#Cc1ccc(-n2[se]c3ccccc3c2=O)cc1,38.9,8,8,16,16,–
Cn1sc(=O)n(Cc2ccccc2)c1=O,–,–,–,–,–,inhibition (Candida albicans [1]): 53.7%
O=C1c2ccccc2CN1c1ccccc1,> 100000,> 64,> 64,> 64,> 64,inhibition (Candida albicans [15]): < 50%
COc1ccc(-n2[se]c3ccccc3c2=O)cc1,91,4,4,4,4,–
Nc1ccc(-n2[se]c3ccccc3c2=O)cc1,82.3,8,8,8,8,Ratio (Candida albicans [7]): 3560 M⁻¹ s⁻¹; IC50 [8]: > 32 µM; Kinact (Candida albicans [11]): 0.00199 s⁻¹; Ki [14]: 559 nM
CCCCCCNC(=O)n1cc(F)c(=O)[nH]c1=O,–,–,–,–,–,inhibition (Candida albicans [1]): 62.2%
CCCCNC(=O)Nc1ccc(-n2[se]c3ccccc3c2=O)cc1,93,8,8,8,8,–
O=C(O)c1ccc(-n2[se]c3ccccc3c2=O)cc1,44.5,64,64,64,64,–
O=C(NCc1ccccc1)n1sc2ccccc2c1=O,370,–,–,–,–,–
COC(=O)c1ccc(-n2[se]c3ccccc3c2=O)cc1,120,8,8,8,4,–
O=c1c2ccccc2[se]n1-c1ccc(N2CCOCC2)cc1,130,–,–,–,–,–
CCc1ccc(-n2[se]c3ccccc3c2=O)cc1,92,4,2,4,1,IC50 [8]: > 32 µM; Activity (Candida albicans [16]): Dose-Dependent Effect; Activity (Candida albicans [17]): Active
O=c1c2ccccc2sn1-c1ccccc1,242,–,–,–,–,IC50 [8]: > 32 µM
NC(=O)c1ccc(-n2[se]c3ccccc3c2=O)cc1,85,64,64,64,64,–
O=c1c2ccccc2[se]n1-c1ccc(F)cc1F,84,4,2,4,4,IC50 [8]: > 32 µM
O=c1c2ccccc2[se]n1-c1cccc(C(F)(F)F)c1,84,4,4,2,4,IC50 [8]: > 32 µM
CC(C)C[C@H](NC(=O)[C@H](Cc1ccccc1)NC(=O)c1cnccn1)B(O)O,–,–,–,–,–,inhibition (Candida albicans [1]): -0.52%

Compound,IC50 [6] [nM],MIC80 (Candida albicans [9]) [µg/mL],MIC80 (Candida albicans [10]) [µg/mL],MIC80 (Candida albicans [12]) [µg/mL],MIC80 (Candida albicans [13]) [µg/mL],other results
O=c1c2ccccc2[se]n1-c1ccc(-n2ccnc2)cc1,45.8,4,4,4,4,Activity (Candida albicans [16]): Dose-Dependent Effect; Activity (Candida albicans [17]): Active
O=C(C(=O)n1sc2ccccc2c1=O)c1ccccc1,15700,–,–,–,–,–
COC(=O)/C=C/C(=O)OC,–,–,–,–,–,inhibition (Candida albicans [1]): 0.58%
C[C@@H]1O[C@@H]1P(=O)(O)O,–,–,–,–,–,inhibition (Candida albicans [1]): 0.32%
Cc1ccc(-n2[se]c3ccccc3c2=O)cc1,13.3,4,2,4,2,IC50 [8]: > 32 µM
OC(Cn1cncn1)(Cn1cncn1)c1ccc(F)cc1F [FLUCONAZOLE],–,0.25,> 64,> 64,> 64,Activity (Candida albicans [16]): Active; Activity (Candida albicans [17]): inactive
O=c1c2ccccc2[se]n1-c1ccc(Cl)cc1Cl,76,4,2,4,2,IC50 [8]: > 32 µM
O=c1c2ccccc2[se]n1-c1nccs1,113,4,8,4,8,–
O=c1c2ccccc2[se]n1Cc1ccccc1,118,2,4,4,4,–
O=C(O)CCCCC1CCSS1 (centres undefined),–,–,–,–,–,inhibition (Candida albicans [1]): 80%
O=C1c2ccccc2CN1Cc1ccccc1,> 100000,> 64,> 64,> 64,> 64,inhibition (Candida albicans [15]): < 50%
CC(=O)Nc1ccc(S(=O)(=O)n2sc3ccccc3c2=O)cc1,> 50000,–,–,–,–,inhibition (Candida albicans [1]): < 50%
O=c1c2ccccc2sn1S(=O)(=O)c1ccccc1,> 50000,–,–,–,–,inhibition (Candida albicans [1]): < 50%
O=C(NCc1ccccc1)N1Cc2ccccc2C1=O,> 100000,> 64,> 64,> 64,> 64,inhibition (Candida albicans [15]): < 50%
O=C(Cc1ccccc1)n1sc2ccccc2c1=O,488,–,–,–,–,–
O=c1c2ccccc2[se]n1-c1ccccn1,72.7,4,4,2,4,–
O=c1c2ccccc2[se]n1Nc1ccccc1,96.3,–,–,–,–,–
O=c1c2ccccc2[se]n1CCc1ccccc1,22.5,4,2,4,4,–
CC(C)c1ccc(-n2[se]c3ccccc3c2=O)cc1,110,4,2,4,2,IC50 [8]: > 32 µM
O=C(NC1CCCCC1)n1sc2ccccc2c1=O,1110,–,–,–,–,–
CC(=O)c1ccc(-n2[se]c3ccccc3c2=O)cc1,17.3,16,8,16,8,–
O=c1[nH]sc2ccccc12,> 5000,–,–,–,–,inhibition (Candida albicans [1]): < 50%
O=C(c1ccccc1)c1ccc(-n2[se]c3ccccc3c2=O)cc1,31,4,4,4,4,Activity (Candida albicans [16]): Dose-Dependent Effect; Activity (Candida albicans [17]): Active
